“Also recorded” adds a separate entry of the source. Like-named read-outs stand apart in the source and are kept apart here.
Key:
PCNA [1] = target: T1, PCNA (Homo sapiens, UniProt P12004); experiment: Association of PCNA with chromatin, PC-3 (NP-E/NP-R western blot); format: cell-based
T1 construct: endogenous PCNA was knocked down with transfection of PCNA-specific siRNA; endogenous in cells; host or cells: PC-3
Protocol: The encircling of DNA and association with chromatin is required for PCNA to execute its function. Therefore, the effect of PCNA-I1 on the association of PCNA with chromatin was investigated. PC-3 cells were treated for various times with 0.5 μM of PCNA-I1 and lysed in buffer A (10 mM Tris-HCl, pH 7.4, 2.5 mM MgCl2, 0.5% NP-40, 1 mM DTT, 1 mM PMSF, and protease inhibitor cocktail). Samples were pelleted by centrifuge (1500×g, 2 min, 4° C.), and supernatant collected as NP-40-extractable ([…]) fraction. The pellet was washed in NP-40 buffer B (10 mM Tris-HCl, pH 7.4, 150 mM NaCl, 1 mM PMSF, and a protease inhibitor cocktail) to release the free form of PCNA. The cells were resuspended and digested in buffer C (10 mM Tris-HCl, pH 7.4, 10 mM NaCl, 5 mM MgCl2, 0.2 mM PMSF, and protease inhibitors) with 200 units/[…] of DNase I for 30 min at 37° C. After centrifugation at 13,000×g for 5 min at 4° C., the supernatant was collected and fractions were analyzed by western blotting. MCF-7, HeLa, and LNCaP cells were also subjected to treatment with 0.5 μM of PCNA-I1 and subjected to western blotting as previously discussed.

[2] = system: CT26R100 murine colon cancer cell line; experiment: Growth inhibition by MTT staining, CT26R100; format: cell-based, Mouse
[3] = system: TRAMP-C2RE3 prostate cancer cells; experiment: Growth inhibition by MTT staining, TRAMP-C2RE3; format: cell-based; settings: 96 h, Mouse, Prostate tumor cells, treated four days
Protocol: (§1) Growth inhibitory effects of PCNA-I1 and PCNA-I2 were assessed in human cancer cell lines, mouse cancer cell lines, immortalized mouse cell lines, and human primary cell lines. Specifically, growth inhibitory effects of PCNA-I1 and PCNA-I2 were assessed using MTT staining in the following cells lines: 1) human cancer cell lines including LNCaP (androgen receptor […]), 22Rv1, DU-145, LAPC-4, and PC-3 (androgen receptor […]) prostate cancer cells; MCF-7 and T47D breast cancer cells; A375 and MDA-MB435 melanoma cells; 2) mouse cancer cell lines including TRAMP-C2RE3 prostate cancer cells, B16 and K1735 melanoma cells, UV2237 fibrosarcoma cells, and CT-26 colon cancer cells; 3) immortalized mouse lung cell lines and mouse endothelial cell lines; and 4) primary human cell lines including umbilical endothelial cells (HUVEC, PromoCell, Heidelberg, Germany), primary bone marrow mesenchymal stem cells (HuMSC, PromoCell), primary human mammary epithelial cells (HuBrEC, Lonza, Walkersville, Md.), primary human prostate epithelial cells (HuPrEC, Lonza), and primary mouse spleen lymphocytes (isolated in this laboratory), and primary mouse bone marrow stromal cells (isolated in this laboratory). […]
(§2) IC50 values were derived from growth inhibition curves. […] Inhibition of cell growth was calculated using the formula: growth inhibition (%)=(1−A570 of treated/A570 of control)×100. […]

PC-3 cells = experiment: MTT assay, PCNA-I1 and cisplatin alone or combined, PC-3; format: cell-based, Human; settings: Homo sapiens
Protocol: LNCaP or PC-3 cells were treated with a variety of concentrations of PCNA-I1 (0.1-10 μM) or cisplatin (0.1-10 μM) alone, or with a variety of concentrations of a combination of PCNA-I1 (0.1-10 μM) and cisplatin (0.1-10 μM) for four days. MTT assays were performed and IC50 values for PCNA-I1 and cisplatin were determined.

PCNA [4] = target: T1, PCNA; experiment: Euchromatin- and heterochromatin-associated PCNA; format: cell-based; settings: PC-3, 0.5 μM, 8 H; FIG. 12
Protocol: Differential effects of PCNA-I1 on the level of euchromatin- (often under active gene transcription) and heterchromatin (often under limited gene transcription) associated PCNA were also investigated. Specifically, PC-3 cells were treated for 8 H with 0.5 μM of PCNA-I1 and PCNA was extracted by procedures known in the art with a combination of limited digestion with micrococcal nuclease and treatment with EDTA to obtain total (S1), euchromatin-associated (S2), and heterochromatin-associated (S3). The extracts were subjected to western blotting analysis.

[5] = system: LAPC-4 prostate cancer cells; experiment: Growth inhibition by MTT staining, LAPC-4; format: cell-based; settings: LAPC4, 96 h, Human tumor cells, treated four days
Protocol: as §1, §2

T1 sequence (P12004 whole entry): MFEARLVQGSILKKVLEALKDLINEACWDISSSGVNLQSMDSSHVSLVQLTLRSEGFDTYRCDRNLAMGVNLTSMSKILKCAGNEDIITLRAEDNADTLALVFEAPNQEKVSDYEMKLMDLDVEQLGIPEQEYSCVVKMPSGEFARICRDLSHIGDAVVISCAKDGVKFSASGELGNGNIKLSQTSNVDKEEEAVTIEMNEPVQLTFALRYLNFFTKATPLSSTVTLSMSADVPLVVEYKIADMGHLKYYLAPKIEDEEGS

In the case of `Cc1ccsc1C(=O)N/N=C/c1ccc2ccccc2c1O` [PCNA-I1], the “PCNA in NP-E fraction (free-form PCNA), time course” value (PCNA [1]; PC-3, 0.5 μM, FIG. 10(A)) is reported as “not significantly altered in cells treated by PCNA-I1 for up to 8 H but reduced in cells treated for 16 H”, the “PCNA in NP-R fraction (chromatin-associated PCNA), time course” value (PCNA [1]; PC-3, 0.5 μM, FIG. 10(A)) is reported as “reduced in 1 to 2 H” and the “Chromatin-associated and free form PCNA, concentration dependence” value (PCNA [1]; PC-3, FIG. 10(B)) is reported as “at concentration of 0.5 μM or lower mainly reduced the level of chromatin-associated PCNA and at concentration of 1 μM or higher led to a reduction of both the chromatin-associated and free form PCNA”. For the same compound, the IC50 ([2]; Mouse tumor cells, cell line not given, read-out: IC50 Values, cell line cell blank (second row below UV2237)) was 80 nM, the “Sensitivity of multidrug resistant CT26R100 and CT26-R500 cells relative to parental CT26 cells” value ([2]; cells overexpress P-glycoprotein, MDR phenotype) was “even more sensitive to PCNA-I1 than the parental CT26 cells; also recorded: as susceptible as the parental CT-26 cells” and the IC50 [3] was 200 nM. For the same compound, the IC50 (PC-3 cells; PC-3, 96 h, MTT, four days, single agent, read-out: IC50 doses for cell growth inhibition, PC-3, agent alone) was 240 nM, the IC50 (PC-3 cells; PC-3, combined with 0.3 μM cisplatin, read-out: PCNA-I1 concentration giving 50% inhibition in combination, PC-3) was 80 nM and the “Euchromatin- and heterochromatin-associated PCNA” value (PCNA [4]) was “reduced both euchromatin- and heterochromatin protein 1α”. For the same compound, the IC50 [5] was 300 nM.

— US9895363B2, “Methods for modulating function of proliferating cell nuclear antigen (PCNA) and treating cancer with PCNA-targeting compounds” (University of Cincinnati, priority 2010, dated 2018)
